A short description of the series: osmotic coefficient (dimensionless); mn = molality of the nth substance listed, in mol/kg. To be noted: 298.15 K, 101 kPa, Liquid.
Where [1] appears, read: commercial osmometer Gonotec 070, m1 = 0.5.
Where [2] appears, read: commercial osmometer Gonotec 070, m1 = 1.
[3] abbreviates: commercial osmometer Knauer K-7000, m1 = 1.
[4] abbreviates: commercial osmometer Knauer K-7000, m1 = 3.

“And” between values parts separate entries of the source, which are not always exact repeats. Equal entries are not always repeated. ± gives the expanded uncertainty stated by the source.

As for `[I-].[K+]` [potassium iodide] + O, the osmotic coefficient was 0.916 and 0.923 under setting [1]; 0.934 and 0.927 under setting [2].
As to `N.N.O=S(=O)(O)O` [ammonium sulfate] + O, the osmotic coefficient by setting is: under setting [3], 0.643 and 0.64 and 0.641; under setting [4], 0.629 and 0.627 and 0.625.
`O=[N+]([O-])[O-].[Na+]` [sodium nitrate] + O: the osmotic coefficient under setting [1] is 0.895 and 0.874; the osmotic coefficient under setting [2] was 0.865 and 0.867; the osmotic coefficient under setting [3] was 0.854 and 0.859; the osmotic coefficient under setting [4] was 0.805 and 0.806.
Regarding `[I-].[Li+]` [lithium iodide] + O, the osmotic coefficient reads like this: under setting [1], 1 and 1.01; under setting [2], 1.07 and 1.01.
Turning to `[Br-].[Na+]` [sodium bromide] + O, the osmotic coefficient is 0.953 and 0.934 under setting [1]; 0.959 and 0.971 under setting [2].
`O=S(=O)([O-])[O-].[Na+].[Na+]` [sodium sulfate] + O: the osmotic coefficient was 0.717 and 0.69 under setting [1]; 0.658 and 0.642 under setting [2].
On to `O=[N+]([O-])[O-].[K+]` [potassium nitrate] + O, for which the osmotic coefficient under setting [3] was 0.746 and 0.744 and 0.747; the osmotic coefficient under setting [4] was 0.599 and 0.597 and 0.598.
Take `[Cl-].[Na+]` [sodium chloride] + O: the osmotic coefficient was 0.927 and 0.925 under setting [3]; 1.05 under setting [4].
`[Cl-].[Li+]` [lithium chloride] + O: the osmotic coefficient under setting [1] is 0.928 and 0.955; the osmotic coefficient under setting [2] is 0.987 and 0.978.
Turning to `[Br-].[K+]` [potassium bromide] + O, the osmotic coefficient runs as follows: under setting [1], 0.907 and 0.905; under setting [2], 0.919 and 0.917.
For `[Cl-].[K+]` [potassium chloride] + O, the osmotic coefficient is 0.905 ± 0.011 under setting [1]; 0.915 ± 0.01 under setting [2]; 0.895 and 0.897 under setting [3]; 0.938 and 0.935 and 0.936 under setting [4].
On to `[Br-].[Li+]` [lithium bromide] + O, for which the osmotic coefficient under setting [1] was 0.978 and 0.97; the osmotic coefficient under setting [2] was 1.03 and 1.04.
In the case of `[I-].[Na+]` [sodium iodide] + O, the osmotic coefficient under setting [1] was 0.955 and 0.95; the osmotic coefficient under setting [2] is 0.985 and 1.

These data come from the NIST ThermoML archive (doi:10.1016/j.jct.2013.08.018).
